According to the NIST ThermoML archive (doi:10.1021/acs.jced.8b01075):

Assay: molar heat capacity at saturation pressure
Settings: Crystal, Small (less than 1 g) adiabatic calorimetry

[Al+3].[Al+3].[O-2].[O-2].[O-2] [aluminum oxide (Al2O3)]
Settings	molar heat capacity [J/K/mol]
81.94 K	7.415
84.02 K	7.956
87.02 K	8.82
90.02 K	9.678
93.01 K	10.58
96 K	11.53
98.99 K	12.53
101.97 K	13.54
104.94 K	14.57
107.93 K	15.61
110.92 K	16.7
113.92 K	17.8
116.92 K	18.91
119.93 K	20.06
122.94 K	21.18
125.95 K	22.36
128.99 K	23.51
132.02 K	24.71
135.04 K	25.91
138.07 K	27.14
141.09 K	28.39
144.13 K	29.63
147.16 K	30.83
150.2 K	32.05
153.23 K	33.28
156.27 K	34.49
159.31 K	35.7
162.35 K	36.9
165.39 K	38.13
168.44 K	39.32
171.48 K	40.52
174.52 K	41.67
177.6 K	42.88
180.64 K	44.01
183.68 K	45.17
186.72 K	46.24
189.76 K	47.4
192.8 K	48.56
195.84 K	49.61
198.88 K	50.65
201.91 K	51.8
204.95 K	52.77
207.97 K	53.81
211 K	54.84
214.02 K	55.88
217.04 K	56.95
220.05 K	57.85
223.06 K	58.88
226.07 K	59.93
229.07 K	60.93
232.07 K	61.8
235.06 K	62.67
238.05 K	63.55
241.03 K	64.4
244.01 K	65.33
246.98 K	66.26
249.94 K	67.1
252.9 K	67.9
255.85 K	68.71
258.78 K	69.49
261.71 K	70.19
264.63 K	71.03
267.53 K	71.84
270.43 K	72.53
